Measurements taken from article PMC3325286, “Structural and Functional Diversity of Acidic Scorpion Potassium Channel Toxins” (PLoS ONE, 2012).
Positions of bridges follow the written chain, without caps; N, C: chain ends. Residues, ends and D or L forms follow the SMILES beside them. No end group written: not given here.

Assays:
[1] = biological target: T1, KCNQ1 channel (Homo sapiens, UniProt P15382+P51787); assay: cell-based; settings: for inhibition at 1 µM: HEK293, read-out: Inhibition of KCNQ1 channel current, ImKTx104 and mutants; for inhibition at 10 µM: HEK293, read-out: Inhibition of KCNQ1 channel current
T1 sequence (P51787 whole entry, looked up): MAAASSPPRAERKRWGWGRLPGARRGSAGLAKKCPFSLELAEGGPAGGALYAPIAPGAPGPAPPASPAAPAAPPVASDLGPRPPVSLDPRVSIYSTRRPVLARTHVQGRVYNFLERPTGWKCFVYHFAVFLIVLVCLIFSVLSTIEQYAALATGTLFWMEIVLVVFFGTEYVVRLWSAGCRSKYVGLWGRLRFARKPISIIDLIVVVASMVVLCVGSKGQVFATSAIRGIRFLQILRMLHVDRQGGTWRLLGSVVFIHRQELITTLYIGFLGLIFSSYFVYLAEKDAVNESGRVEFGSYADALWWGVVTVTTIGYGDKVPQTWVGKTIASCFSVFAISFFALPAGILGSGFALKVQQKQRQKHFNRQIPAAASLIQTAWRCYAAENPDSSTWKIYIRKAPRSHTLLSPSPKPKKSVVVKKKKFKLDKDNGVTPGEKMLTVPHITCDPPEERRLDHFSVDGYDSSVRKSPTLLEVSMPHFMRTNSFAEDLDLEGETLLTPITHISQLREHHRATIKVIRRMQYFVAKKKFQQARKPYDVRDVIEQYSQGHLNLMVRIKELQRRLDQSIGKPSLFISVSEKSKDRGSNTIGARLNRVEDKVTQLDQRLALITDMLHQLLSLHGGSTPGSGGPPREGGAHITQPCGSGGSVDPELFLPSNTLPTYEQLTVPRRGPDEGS

[2] = tested on: Kv1.3 channel; assay: Patch-clamp inhibition of Kv1.3 channel current in transfected HEK293 cells; assay type: cell-based
[3] = biological target: T1, KCNQ1 channel; settings: for Effect on KCNQ1 channel (in words): 10 µM concentration
[4] = tested on: SKCa channel; assay: Patch-clamp inhibition of SKCa channel current in transfected HEK293 cells; assay type: cell-based; settings: 1 µM concentration; n>3
[5] = tested on: BKCa channel; assay: Patch-clamp inhibition of BKCa channel current in transfected HEK293 cells; assay type: cell-based; settings: 1 µM concentration; n>3
[6] = tested on: TRPV1 channel; assay: Patch-clamp inhibition of TRPV1 channel current in transfected HEK293 cells; assay type: cell-based; settings: 1 µM concentration; n>3

CC[C@H](C)[C@@H]1NC(=O)[C@H]([C@@H](C)O)NC(=O)[C@H](C)NC(=O)[C@H](Cc2ccc(O)cc2)NC(=O)[C@@H]2CSSC[C@@H](C(=O)N[C@@H](CCSC)C(=O)O)NC(=O)[C@H](CCCCN)NC(=O)[C@@H]3CSSC[C@H](NC(=O)[C@H](CC(=O)O)NC(=O)[C@H](CCC(=O)O)NC(=O)[C@H](Cc4c[nH]cn4)NC(=O)[C@H]([C@@H](C)O)NC(=O)[C@H](C(C)C)NC(=O)[C@@H](NC(=O)[C@H](C)N)CSSC[C@H](NC(=O)[C@H]([C@@H](C)O)NC(=O)CNC1=O)C(=O)N[C@@H](C(C)C)C(=O)N[C@@H](CC(=O)O)C(=O)NCC(=O)N[C@@H](CCCCN)C(=O)N3)C(=O)N[C@@H]([C@@H](C)O)C(=O)N[C@@H](CC(C)C)C(=O)N[C@@H](CC(C)C)C(=O)N2 [ImKTX104-D14A] (H-ACVTHEDCTLLCYATIGTCVDGKCKCM-OH; disulfide 2-19, 8-24, 12-26)
inhibition at 1 µM [1]: 25.6%

CC[C@H](C)[C@@H]1NC(=O)[C@H]([C@@H](C)O)NC(=O)[C@H](CC(=O)O)NC(=O)[C@H](Cc2ccc(O)cc2)NC(=O)[C@@H]2CSSC[C@@H](C(=O)N[C@@H](CCSC)C(=O)O)NC(=O)[C@H](C)NC(=O)[C@@H]3CSSC[C@H](NC(=O)[C@H](CC(=O)O)NC(=O)[C@H](CCC(=O)O)NC(=O)[C@H](Cc4c[nH]cn4)NC(=O)[C@H]([C@@H](C)O)NC(=O)[C@H](C(C)C)NC(=O)[C@@H](NC(=O)[C@H](C)N)CSSC[C@H](NC(=O)[C@H]([C@@H](C)O)NC(=O)CNC1=O)C(=O)N[C@@H](C(C)C)C(=O)N[C@@H](CC(=O)O)C(=O)NCC(=O)N[C@@H](CCCCN)C(=O)N3)C(=O)N[C@@H]([C@@H](C)O)C(=O)N[C@@H](CC(C)C)C(=O)N[C@@H](CC(C)C)C(=O)N2 [ImKTX104-K25A] (H-ACVTHEDCTLLCYDTIGTCVDGKCACM-OH; disulfide 2-19, 8-24, 12-26)
inhibition at 1 µM [1]: 21.4%

EDKLKCTKTDDCAKYCSQFTDVHPACLGGYCECLRWEGGISS (disulfide 6-26, 12-31, 16-33) [StKTx23]
Effect on Kv1.3 channel (in words) [2]: effectively blocked
Effect on KCNQ1 channel (in words) [3]: did not inhibit
inhibition at 10 µM [1]: 4.21%

CC[C@H](C)[C@@H]1NC(=O)[C@H](C)NC(=O)[C@H](CCC(=O)O)NC(=O)[C@H](CO)NC(=O)[C@H]([C@@H](C)CC)NC(=O)[C@@H]2CCCN2C(=O)[C@@H](NC(=O)[C@H](CC(=O)O)NC(=O)CNC(=O)[C@@H](N)CCC(=O)O)CSSC[C@@H]2NC(=O)[C@H](C(C)C)NC(=O)[C@H](CCC(=O)O)NC(=O)[C@H](C(C)C)NC(=O)[C@H](CCCCN)NC(=O)[C@H](CCC(=O)O)NC(=O)[C@H](CCCCN)NC(=O)[C@@H]3CSSC[C@@H](C(=O)N[C@@H](CO)C(=O)NCC(=O)O)NC(=O)[C@H](CCCCN)NC(=O)[C@H](CSSC[C@H](NC(=O)[C@H](CCCCN)NC1=O)C(=O)N[C@@H](C(C)C)C(=O)N[C@@H](CCC(=O)O)C(=O)N[C@@H](CCCCN)C(=O)N3)NC(=O)[C@H](C(C)C)NC(=O)CNC(=O)[C@@H]1CCCN1C(=O)[C@H](CCC(=O)O)NC2=O [LmKTx2] (H-EGDCPISEAIKCVEKCKEKVEVCEPGVCKCSG-OH; disulfide 4-23, 12-28, 16-30)
Effect on Kv1.3 channel (in words) [2]: minor effect
Effect on KCNQ1 channel (in words) [3]: only weakly inhibited
inhibition at 10 µM [1]: 27.7%

CC[C@H](C)[C@@H]1NC(=O)[C@H]([C@@H](C)O)NC(=O)[C@H](CC(=O)O)NC(=O)[C@H](Cc2ccc(O)cc2)NC(=O)[C@@H]2CSSC[C@@H](C(=O)N[C@@H](CCSC)C(=O)O)NC(=O)[C@H](CCCCN)NC(=O)[C@@H]3CSSC[C@H](NC(=O)[C@H](CC(=O)O)NC(=O)[C@H](CCC(=O)O)NC(=O)[C@H](Cc4c[nH]cn4)NC(=O)[C@H]([C@@H](C)O)NC(=O)[C@H](C(C)C)NC(=O)[C@@H](NC(=O)[C@H](C)N)CSSC[C@H](NC(=O)[C@H]([C@@H](C)O)NC(=O)CNC1=O)C(=O)N[C@@H](C(C)C)C(=O)N[C@@H](CC(=O)O)C(=O)NCC(=O)N[C@@H](C)C(=O)N3)C(=O)N[C@@H]([C@@H](C)O)C(=O)N[C@@H](CC(C)C)C(=O)N[C@@H](CC(C)C)C(=O)N2 [ImKTX104-K23A] (H-ACVTHEDCTLLCYDTIGTCVDGACKCM-OH; disulfide 2-19, 8-24, 12-26)
inhibition at 1 µM [1]: 15.5%

CC[C@H](C)[C@@H]1NC(=O)[C@@H](NC(=O)[C@H](C)NC(=O)[C@H](CC(N)=O)NC(=O)CN)CSSC[C@@H](C(=O)N[C@@H](CC(=O)O)C(=O)N[C@@H](CCCCN)C(=O)O)NC(=O)[C@@H]2CCCN2C(=O)[C@H](CCCCN)NC(=O)[C@H](CC(=O)O)NC(=O)[C@@H]2CSSC[C@H](NC(=O)[C@H](C(C)C)NC(=O)[C@H](CCC(=O)O)NC1=O)C(=O)N[C@@H](CC(C)C)C(=O)N[C@@H](CCC(N)=O)C(=O)N[C@@H](Cc1c[nH]cn1)C(=O)N[C@@H]([C@@H](C)O)C(=O)NCC(=O)N[C@@H](CC(N)=O)C(=O)N1CCC[C@H]1C(=O)N[C@@H](C)C(=O)N[C@@H](CCC(=O)O)C(=O)N2 [HeTx204] (H-GNACIEVCLQHTGNPAECDKPCDK-OH; disulfide 4-22, 8-18)
Effect on Kv1.3 channel (in words) [2]: effectively blocked
Effect on SKCa channel (in words) [4]: negligible effects
Effect on BKCa channel (in words) [5]: negligible effects
Effect on TRPV1 channel (in words) [6]: negligible effects
Washout of toxin from KCNQ1 channel (in words) ([3]; 10 µM): could not be removed
Effect on KCNQ1 channel (in words) [3]: effectively blocked
inhibition at 10 µM [1]: 44.9%

CSCC[C@@H]1NC(=O)[C@@H]2CCCN2C(=O)[C@@H]2CSSC[C@@H]3NC(=O)[C@H](C(C)C)NC(=O)CNC(=O)[C@H](CC(=O)O)NC(=O)[C@H](CC(=O)O)NC(=O)[C@H](CSSC[C@H](NC(=O)CNC(=O)[C@@H](N)C(C)C)C(=O)N[C@@H](CCC(=O)O)C(=O)N[C@@H](CCC(=O)O)C(=O)N2)NC(=O)[C@H]([C@@H](C)O)NC(=O)[C@@H]2CCCN2C(=O)[C@H](CCCCN)NC(=O)[C@H](C)NC(=O)[C@H](CC(N)=O)NC(=O)[C@H](CCCCN)NC(=O)CNC(=O)[C@H](CCCCN)NC(=O)[C@H](CSSC[C@@H](C(=O)N[C@@H](CC(N)=O)C(=O)N[C@H](C(=O)O)C(C)C)NC(=O)[C@H](CC(N)=O)NC3=O)NC(=O)[C@H](Cc2c[nH]cn2)NC1=O [BmP02, reference compound] (H-VGCEECPMHCKGKNAKPTCDDGVCNCNV-OH; disulfide 3-19, 6-24, 10-26)
Effect on KCNQ1 channel (in words) [3]: only weak inhibitors
inhibition at 10 µM [1]: 23.3%

CC[C@H](C)[C@@H]1NC(=O)[C@@H](NC(=O)[C@H](C)NC(=O)[C@H](CC(N)=O)NC(=O)CN)CSSC[C@@H](C(=O)N[C@@H](CC(=O)O)C(=O)N[C@@H](CCCCN)C(=O)O)NC(=O)[C@H](C)NC(=O)[C@H](CCCCN)NC(=O)[C@H](CC(=O)O)NC(=O)[C@@H]2CSSC[C@H](NC(=O)[C@H](C(C)C)NC(=O)[C@H](CCC(=O)O)NC1=O)C(=O)N[C@@H](CC(C)C)C(=O)N[C@@H](CCC(N)=O)C(=O)N[C@@H](Cc1c[nH]cn1)C(=O)N[C@@H]([C@@H](C)O)C(=O)NCC(=O)N[C@@H](CC(N)=O)C(=O)N1CCC[C@H]1C(=O)N[C@@H](C)C(=O)N[C@@H](CCC(=O)O)C(=O)N2 [HeTx203] (H-GNACIEVCLQHTGNPAECDKACDK-OH; disulfide 4-22, 8-18)
Effect on KCNQ1 channel (in words) [3]: only weakly inhibited
inhibition at 10 µM [1]: 17.8%
